Experimental data from patent publication US20240025891A1 (Celgene Corporation, priority 2020, published 2024).
pIC50: −log10 of the molar value.

System: Dirofilaria immitis microfilariae and 4th stage larvae (L4)
Test: Heartworm screen Dirofilaria immitis (DiMF and DiL4 assays)
Format: cell-based
Settings: read-out: D. immitis Act class
Description: Heartworm Screen Dirofilaria immitis (D. immitis)
(§1) Dirofilaria immitis, Microfilaria (DiMF) Assay. Compounds were dissolved and serially diluted in DMSO. Aliquots were spotted to the empty wells of assay plates. Media and microfilariae of Dirofilaria immitis were added to each well to dilute the test compounds to the desired concentrations. Assay plates were incubated for approximately 72 hours, and the larvae in each well were observed microscopically for drug effect. Microfilariae in each well were assessed subjectively for survival or paralysis, and results were reported as Minimum Effective Dose (MED).
as §1, with “L4 stage (DiL4)” for “Microfilaria (DiMF)”, “4th stage larvae (L4)” for “microfilariae”, “Larvae” for “Microfilariae”
Active and selective (DiL4 vs. DiMF potency) example compounds were subsequently evaluated in heartworm positive dog studies to correlate the in vitro selectivity profile with in vivo effects on circulating microfilariae.

SMILES | pIC50
CC(=O)N(C)c1cc(C(F)(F)F)cnc1Nc1nc(-c2ccc(OC(C)C)cn2)cs1 [Example 93, N-(2-(4-(5-isopropoxypyridin-2-yl)thiazol-2-ylamino)-5-(trifluoromethyl)pyridin-3-yl)-N-methylacetamide] | 5.30 to 6.30
COc1ccc(Nc2nc(-c3ccccn3)cs2)nc1 [Example 218, N-(5-methoxypyridin-2-yl)-4-(pyridin-2-yl)thiazol-2-amine] | 5.30 to 6.30
c1ccc(-c2csc(Nc3cc(-c4ncccn4)ccn3)n2)nc1 [Example 174, 4-(pyridin-2-yl)-N-(4-(pyrimidin-2-yl)pyridin-2-yl)thiazol-2-amine] | 6.30 to 6.70
CCOc1ccc(-c2csc(Nc3ncc(C(F)(F)F)cc3C)n2)nc1 [Example 84, 4-(5-ethoxypyridin-2-yl)-N-(3-methyl-5-(trifluoromethyl)pyridin-2-yl)thiazol-2-amine] | 6.30 to 6.70
Cc1cccnc1-c1csc(Nc2cc(-c3ccccc3)ccn2)n1 [Example 100, 4-(3-methylpyridin-2-yl)-N-(4-phenylpyridin-2-yl)thiazol-2-amine] | 6.30 to 6.70
CCOc1cnc(-c2csc(Nc3cc(C)ccn3)n2)c(C)c1 [Example 74, 4-(5-ethoxy-3-methylpyridin-2-yl)-N-(4-methylpyridin-2-yl)thiazol-2-amine] | > 6.70
c1ccc(-c2csc(Nc3cc(-c4cccc5ccccc45)ccn3)n2)nc1 [Example 175, N-(4-(naphthalen-1-yl)pyridin-2-yl)-4-(pyridin-2-yl)thiazol-2-amine] | > 6.70
CCOc1ccc(-c2csc(Nc3cc(C)ccn3)n2)nc1 [Example 91, 4-(5-ethoxypyridin-2-yl)-N-(4-methylpyridin-2-yl)thiazol-2-amine] | > 6.70
Cc1ccnc(Nc2nc(-c3ccccn3)c(CN3CCC3)s2)c1 [Example 183, 5-(azetidin-1-ylmethyl)-N-(4-methylpyridin-2-yl)-4-(pyridin-2-yl)thiazol-2-amine] | 5.30 to 6.30
Cc1ccnc(-c2csc(Nc3ncccc3-c3ccccc3)n2)c1 [Example 99, 4-(4-methylpyridin-2-yl)-N-(3-phenylpyridin-2-yl)thiazol-2-amine] | > 6.70
CCOc1ccc(-c2csc(Nc3cccc(C)n3)n2)nc1 [Example 90, 4-(5-ethoxypyridin-2-yl)-N-(6-methylpyridin-2-yl)thiazol-2-amine] | 5.30 to 6.30
CCOc1ccc(-c2csc(Nc3ccc(C(F)(F)F)cn3)n2)nc1 [Example 95, 4-(5-ethoxypyridin-2-yl)-N-(5-(trifluoromethyl)pyridin-2-yl)thiazol-2-amine] | > 6.70
Cc1ccnc(Nc2nc(-c3cccnc3)cs2)c1 [Example 226, N-(4-methylpyridin-2-yl)-4-(pyridin-3-yl)thiazol-2-amine] | 6.30 to 6.70
Cc1ccnc(Nc2nc(-c3ccccn3)c(C)s2)c1 [Example 132, 5-methyl-N-(4-methyl-pyridin-2-yl)-4-(pyridin-2-yl)thiazol-2-amine] | 6.30 to 6.70
CC(C)c1cnc(Nc2nc(-c3ccccn3)cs2)cc1C(F)(F)F [Example 127, N-(5-isopropyl-4-(trifluoro-methyl)pyridin-2-yl)-4-(pyridin-2-yl)thiazol-2-amine] | > 6.70
CCOc1ccc(Nc2nc(-c3ccc(OCC)cn3)cs2)nc1 [Example 87, N,4-bis(5-ethoxypyridin-2-yl)thiazol-2-amine] | > 6.70
Cc1ccnc(Nc2nc(-c3cc(-c4ccccc4)ccn3)cs2)c1 [Example 101, N-(4-methylpyridin-2-yl)-4-(4-phenylpyridin-2-yl)thiazol-2-amine] | > 6.70
CCOc1cccc(-c2csc(Nc3ncccc3C)n2)n1 [Example 71] | 5.30 to 6.30
Cc1cnc(Nc2nc(-c3ccccn3)cs2)cc1C(F)(F)F [Example 129, N-(5-methyl-4-(trifluoro-methyl)pyridin-2-yl)-4-(pyridin-2-yl)thiazol-2-amine] | > 6.70
CSc1ccc(-c2csc(Nc3ncccc3C)n2)nc1 [Example 80, N-(3-methylpyridin-2-yl)-4-(5-(methylthio)pyridin-2-yl)thiazol-2-amine] | > 6.70
Cc1sc(Nc2ccccn2)nc1-c1ccccn1 [Example 227, 5-methyl-N,4-di(pyridin-2-yl)thiazol-2-amine] | > 6.70
c1ccc(-c2ccc(Nc3nc(-c4ccccn4)cs3)nc2)cc1 [Example 221, N-(5-phenylpyridin-2-yl)-4-(pyridin-2-yl)thiazol-2-amine] | > 6.70
CCOc1ccc(-c2csc(Nc3ccc(C)cn3)n2)nc1 [Example 81, 4-(5-ethoxypyridin-2-yl)-N-(5-methylpyridin-2-yl)thiazol-2-amine] | > 6.70
Cc1ccnc(Nc2nc(-c3ccccn3)c(C(C)(C)C)s2)c1 [Example 181, 5-tert-butyl-N-(4-methylpyridin-2-yl)-4-(pyridin-2-yl)thiazol-2-amine] | 5.30 to 6.30

SMILES | pIC50
CC(=O)N(C)c1cc(C(F)(F)F)cnc1Nc1nc(-c2cc(OC3COC3)ccn2)cs1 [Example 73, N-methyl-N-(2-(4-(4-(oxetan-3-yloxy)pyridin-2-yl)thiazol-2-ylamino)-5-(trifluoromethyl)pyridin-3-yl)acetamide] | 5.30 to 6.30
CCOc1ccc(-c2csc(Nc3ccc(Cl)cn3)n2)nc1 [Example 85, N-(5-chloropyridin-2-yl)-4-(5-ethoxypyridin-2-yl)thiazol-2-amine] | 5.30 to 6.30
COc1ccc(-c2csc(Nc3cc(C)ccn3)n2)nc1 [Example 225, 4-(5-methoxypyridin-2-yl)-N-(4-methylpyridin-2-yl)thiazol-2-amine] | 6.30 to 6.70
c1ccc(-c2csc(Nc3ccc(C4CCCC4)cn3)n2)nc1 [Example 138, N-(5-cyclopentyl-pyridin-2-yl)-4-(pyridin-2-yl)thiazol-2-amine] | > 6.70
CCOc1ccc(-c2csc(Nc3ncc(C)cc3C)n2)nc1 [Example 88, N-(3,5-dimethylpyridin-2-yl)-4-(5-ethoxypyridin-2-yl)thiazol-2-amine] | > 6.70
Cc1cccnc1Nc1nc(-c2ccc(OC3CC3)cn2)cs1 [Example 48] | 6.30 to 6.70
Cc1ccnc(Nc2nc(-c3cc(OC4CN(C)C4)ccn3)cs2)c1 [Example 98, 4-(4-(1-methylazetidin-3-yloxy)pyridin-2-yl)-N-(4-methylpyridin-2-yl)thiazol-2-amine] | 5.30 to 6.30
c1ccc(-c2csc(Nc3cc(-c4cccnn4)ccn3)n2)nc1 [Example 169, N-(4-(pyridazin-3-yl)pyridin-2-yl)-4-(pyridin-2-yl)thiazol-2-amine] | 5.30 to 6.30
O=C(NC1CC1)c1ccnc(Nc2nc(-c3ccccn3)cs2)c1 [Example 170, N-cyclopropyl-2-(4-(pyridin-2-yl)thiazol-2-ylamino) isonicotinamide] | 5.30 to 6.30
Cc1ccnc(Nc2nc(-c3cc(C)ccn3)cs2)c1 [Example 220, N,4-bis(4-methylpyridin-2-yl)thiazol-2-amine] | > 6.70
c1ccc(-c2csc(Nc3cc(-c4cnccn4)ccn3)n2)nc1 [Example 173, N-(4-(pyrazin-2-yl)pyridin-2-yl)-4-(pyridin-2-yl)thiazol-2-amine] | 6.30 to 6.70
CCOc1ccnc(-c2csc(Nc3cc(C)ccn3)n2)c1 [Example 224, 4-(4-ethoxypyridin-2-yl)-N-(4-methylpyridin-2-yl)thiazol-2-amine] | 6.30 to 6.70
c1ccc(-c2csc(Nc3cc(C4CCC4)ccn3)n2)nc1 [Example 168, N-(4-cyclobutyl-pyridin-2-yl)-4-(pyridin-2-yl)thiazol-2-amine] | > 6.70
CCOc1ccc(-c2csc(Nc3ncc(F)cc3C)n2)nc1 [Example 79, 4-(5-ethoxypyridin-2-yl)-N-(5-fluoro-3-methylpyridin-2-yl)thiazol-2-amine] | 6.30 to 6.70
CCCCc1ccnc(Nc2nc(-c3ccccn3)cs2)c1 [Example 167, N-(4-butylpyridin-2-yl)-4-(pyridin-2-yl)thiazol-2-amine] | > 6.70
Cc1cc(C(F)(F)F)cnc1Nc1nc(-c2cc3c(cn2)N(C)CC3)cs1 [Example 97, 4-(1-methyl-2,3-dihydro-1H-pyrrolo[2,3-c]pyridin-5-yl)-N-(3-methyl-5-(trifluoromethyl)pyridin-2-yl)thiazol-2-amine] | > 6.70
COc1ccnc(Nc2nc(-c3ccccn3)cs2)c1 [Example 121, N-(4-methoxypyridin-2-yl)-4-(pyridin-2-yl)thiazol-2-amine] | 6.30 to 6.70
Cc1cccnc1Nc1nc(-c2ccc(Cl)cn2)cs1 [Example 94, 4-(5-chloropyridin-2-yl)-N-(3-methylpyridin-2-yl)thiazol-2-amine] | 6.30 to 6.70
COc1cccnc1-c1csc(Nc2cc(C)ccn2)n1 [Example 7] | 6.30 to 6.70
CCCc1ccnc(Nc2nc(-c3ccccn3)cs2)c1 [Example 172, N-(4-propylpyridin-2-yl)-4-(pyridin-2-yl)thiazol-2-amine] | > 6.70
Cc1ccnc(Nc2nc(-c3ncccc3C#N)cs2)c1 [Example 92, 2-(2-(4-methylpyridin-2-ylamino)thiazol-4-yl)nicotinonitrile] | 5.30 to 6.30
Cc1ccc(-c2csc(Nc3cc(C)ccn3)n2)nc1 [Example 1, N-(4-Methylpyridin-2-yl)-4-(5-methylpyridin-2-yl)thiazol-2-amine] | > 6.70
CCOc1cccnc1-c1csc(Nc2cc(C)ccn2)n1 [Example 72, 4-(3-ethoxypyridin-2-yl)-N-(4-methylpyridin-2-yl)thiazol-2-amine] | > 6.70
